In US6815205B2, “Auxinic analogues of indole-3-acetic acid” (Invitrogen Corporation, priority 1995, dated 2004):
Entries after “also recorded” stand apart in the source; their conditions may differ.

Columns and labels:
[1] = disclosed in copending U.S. application Ser. No. 08/430,209; cited from earlier work
Arabidopsis thaliana = tested on: Arabidopsis thaliana
Method: Seeds of Arabidopsis thaliana ecotypes Columbia and Landersberg ereta are provided by Dr. Keith Davis (The Ohio State University, Columbus). Tissues of hypocotyl are removed from 10-day-old seedlings, transferred to MS complete medium containing (1) different concentrations of IAA or IAA analogue with different concentrations of N^6.(Δ2Isopentenyl) adenine (2iP) and (2) different concentrations of IAA analogue with different concentrations of 2iP, BAP, or kinetin. The explants are incubated at 23° C. using an 18 h light/6 h dark cycle until the formation of green calli and shoots.

transformed potato = assay: Regeneration of Agrobacterium-mediated transformed potato tissue under kanamycin selection; assay type: cell-based; parameters: key to Potato Callus (regeneration of transformed tissue): +(−) means preliminary observation; settings: 100 mg/l kanamycin; for regeneration of kanamycin resistant calli in transformed potato: in the presence of BAP; for Potato Callus (regeneration of transformed tissue): BAP 0.5 mg/l, 2 mg/l IAA derivative, Agrobacterium pBI121
Method: (§1) These IAA analogues were further evaluated for their abilities to effect the regeneration of plant tissues comprising foreign DNA. Tobacco and potato tissues were subjected to Agrobacterium-mediated transformation techniques, including cocultivation with Agrobacterium containing pBI121 and selecting with MS complete medium containing 0.5 mg/l BAP, 2 mg/l IAA derivative and 100 mg/l kanomycin.
Plant transformation in potato stems is carried out as described above in section (a) for tobacco.
(§2) Agrobacterium-mediated plant transformation was performed as described by Lin et al. (1994) Focus 16:72-77. For example:
In another example, potato leaf discs were transformed with the Agrobacterium-mediation technique as described above for tobacco. The potato explants were then subjected to incubation with IAA analogues in the absence and presence of cytokinin to screen for auxinic activities.

transformed tobacco = assay: Regeneration of Agrobacterium-mediated transformed tobacco tissue under kanamycin selection; assay type: cell-based; settings: in the presence of BAP; 100 mg/l kanamycin
Method: as §1, §2
In tobacco, the leaf discs were incubated with 10^9 cells/ml of Agrobacterium tumefaciens LBA4404 cells containing pBI121 in MS complete medium with 0.5 mg/l MES for 10 minutes, transferred to solid MS complete medium, and incubated for two days at 25° C., using an 18 hour light/6 hour dark cycle for cocultivation. After cocultivation, the explants were transferred to the MS medium containing a different ratio of BAP/IAA or BAP/IAA analogue, 100 mg/l kanamycin and 500 mg/l carbenicillin and incubated at 25° C. using an 18 hour light/6 hour dark cycle for shoot formation.

tobacco leaf discs [2] = assay: Regeneration of roots or calli from tobacco leaf explants, MS complete medium with auxin only; assay type: cell-based, Nicotiana tobaccum Xanthi; parameters: key to Tobacco Callus (regeneration): +(−) means preliminary observation; settings: for Tobacco Callus (regeneration): Auxins 2 mg/l, no cytokinin, MS complete medium
Method: (§3) In particular embodiments of the invention, various IAA analogues were screened for auxinic activity by incubating different plant tissues, e.g., tobacco and tomato leaf discs and potato stems in (a) MS complete medium (obtained from Life Technologies, Inc., Gaithersburg, Md.) containing different concentrations of auxin only and (2) the MS complete auxin medium containing different ratios of cytokinin/auxin.
(§4) In another embodiment of the invention, IAA analogues were screened for auxinic activity. […] Table 1 documents the ability of the different IAA analogues to stimulate the regeneration of roots or calli from tobacco, tomato and potato. In general, IAA analogues having a bromine substitution at the 2
Seeds of Nicotiana tobaccum Xanthi are provided by Dr. James Saunders (USDA, Beltsville, Md.). Young tobacco leaves are removed and cut into small pieces.
The regeneration of plant tissues using tissue culture depends on plant hormones such as auxin and cytokinin. It is known that the presence of an auxin in plant tissue cultured on Murashige and Skoog (MS) medium (Murashige, T. and F. Skoog (1962) Physiol. Plant 15:473-497) stimulates the formation of root structure whereas the formation of callus is observed when not only the auxin but also a cytokinin complement the MS nutrient medium. Therefore, evaluation of a test compound as a potential new auxin is performed by incubating tobacco leaf discs in (a) the MS complete medium containing different concentrations of auxin only and (b) the MS complete medium containing different ratios of cytokinin to auxin concentrations (cytokinin/auxin).
(§5) Young tobacco leaves, potato stems, tomato leaves and cassava leaves and stems from one-month-old plants were removed and cut into small pieces. The explants were incubated on (1) the MS complete medium containing different concentrations of auxin related compounds only (2) the MS complete medium containing different concentrations of auxin-related compounds and 0.5 mg/l benzylaminopurine (BAP) using an 18 hour light/6 hour dark cycle until the formation of green calli, shoots or roots.

Cassava leaves and stems = assay: Regeneration of shoots or calli from cassava leaves and stems with auxin in the presence of BAP; assay type: cell-based; settings: 2 mg/l with 0.5 mg/l BAP, MS complete medium
Method: Further, examples of IAA analogues of the invention were evaluated for auxinic activity in the presence of a cytokinin.
In another embodiment of the invention, IAA analogues of the present invention were applied to the regeneration of plant tissues known in the art to be difficult to regenerate, such as cassava, woody plants, and monocotyledonous crops [Vasil and Vasil (1994) in Plant Cell and Tissue Culture (Vasil and Thorpe, eds.), Kluwer Academic Publishers, Dordrech, Netherlands; Chee (1995) Plant Cell Reports 14:753-757; Bums and Schwartz (1996) Plant Cell Reports 15:405-408; Mihaljevic et al. (1996) Plant Cell Reports 15:610-614; Schopke et al. (1996) Nature Biotechnology 14:731].
Stems or third young leaves were removed from the one month old Cassava plants and cut into small pieces. The explants were incubated on MS complete medium containing different concentrations of auxin related compounds and 0.5 mg/l benzylaminopurine (BAP).
(§6) Young tobacco leaves, potato stems, tomato leaves and cassava leaves and stems from one-month-old plants were removed and cut into small pieces. […]

potato stems [3] = assay: Regeneration of roots or calli from potato stem explants, MS complete medium with auxin only; assay type: cell-based; parameters: key to Potato Roots (regeneration): +(−) means preliminary observation; settings: for root formation in potato stems: absence of BAP
Method: as §3, §4
Potato seeds of variety “Kent V. F.” are provided by Dr. James Saunders (USDA, Beltsville, Md.). Young potato stems are removed and cut into small pieces. Explants are incubated in MS complete medium with auxin in the presence or absence of cytokinin as described in section (a) above for tobacco.
as §5

potato stems [4] = assay: Regeneration of shoots or calli from potato stem explants, auxin together with cytokinin (BAP); assay type: cell-based; parameters: key to Potato Callus (regeneration): +(−) means preliminary observation
Method: In particular embodiments of the invention, various IAA analogues were screened for auxinic activity by incubating different plant tissues, e.g., tobacco and tomato leaf discs and potato stems in (a) MS complete medium (obtained from Life Technologies, Inc., Gaithersburg, Md.) containing different concentrations of auxin only and (2) the MS complete auxin medium containing different ratios of cytokinin/auxin. These IAA derivatives were further evaluated for auxinic activity in the presence of a cytokinin. […] Incubation of plant tissues Potato seeds of variety “Kent V. F.” are provided by Dr. James Saunders (USDA, Beltsville, Md.). Young potato stems are removed and cut into small pieces. Explants are incubated in MS complete medium with auxin in the presence or absence of cytokinin as described in section (a) above for tobacco. Young tobacco leaves, potato stems, tomato leaves and cassava leaves and stems from one-month-old plants were removed and cut into small pieces. The explants were incubated on (1) the MS complete medium containing different concentrations of auxin related compounds only (2) the MS complete medium containing different concentrations of auxin-related compounds and 0.5 mg/l benzylaminopurine (BAP) using an 18 hour light/6 hour dark cycle until the formation of green calli, shoots or roots.

tobacco leaf discs [5] = assay: Regeneration of shoots or calli from tobacco leaf explants, auxin together with cytokinin (BAP); assay type: cell-based, Nicotiana tobaccum Xanthi; parameters: key to Tobacco Callus (regeneration): +(−) means preliminary observation
Method: In particular embodiments of the invention, various IAA analogues were screened for auxinic activity by incubating different plant tissues, e.g., tobacco and tomato leaf discs and potato stems in (a) MS complete medium (obtained from Life Technologies, Inc., Gaithersburg, Md.) containing different concentrations of auxin only and (2) the MS complete auxin medium containing different ratios of cytokinin/auxin. These IAA derivatives were further evaluated for auxinic activity in the presence of a cytokinin. […] Incubation of plant tissues Seeds of Nicotiana tobaccum Xanthi are provided by Dr. James Saunders (USDA, Beltsville, Md.). Young tobacco leaves are removed and cut into small pieces. […] The regeneration of plant tissues using tissue culture depends on plant hormones such as auxin and cytokinin. It is known that the presence of an auxin in plant tissue cultured on Murashige and Skoog (MS) medium (Murashige, T. and F. Skoog (1962) Physiol. Plant 15:473-497) stimulates the formation of root structure whereas the formation of callus is observed when not only the auxin but also a cytokinin complement the MS nutrient medium. […]

tomato leaf discs [6] = assay: Regeneration of shoots or calli from tomato leaf explants, auxin together with cytokinin (BAP); assay type: cell-based; settings: 0.5, 2.0 or 8.0 with 0.5 mg/l BAP
Method: In particular embodiments of the invention, various IAA analogues were screened for auxinic activity by incubating different plant tissues, e.g., tobacco and tomato leaf discs and potato stems in (a) MS complete medium (obtained from Life Technologies, Inc., Gaithersburg, Md.) containing different concentrations of auxin only and (2) the MS complete auxin medium containing different ratios of cytokinin/auxin. These IAA derivatives were further evaluated for auxinic activity in the presence of a cytokinin. […] Incubation of plant tissues Tomato seeds of variety “Moneymaker” are provided by Dr. James Saunders (USDA, Beltsville, Md.). Young tomato leaves are removed and cut into small pieces. Explants are incubated in MS complete medium with auxin in the presence or absence of cytokinin as described in section (a) above for tobacco. Young tobacco leaves, potato stems, tomato leaves and cassava leaves and stems from one-month-old plants were removed and cut into small pieces. The explants were incubated on (1) the MS complete medium containing different concentrations of auxin related compounds only (2) the MS complete medium containing different concentrations of auxin-related compounds and 0.5 mg/l benzylaminopurine (BAP) using an 18 hour light/6 hour dark cycle until the formation of green calli, shoots or roots.

tomato leaf discs [7] = assay: Regeneration of roots or calli from tomato leaf explants, MS complete medium with auxin only; assay type: cell-based; settings: 0.5, 2.0 and 8.0 mg/l, absence of BAP
Method: as §3, §4
Tomato seeds of variety “Moneymaker” are provided by Dr. James Saunders (USDA, Beltsville, Md.). Young tomato leaves are removed and cut into small pieces. Explants are incubated in MS complete medium with auxin in the presence or absence of cytokinin as described in section (a) above for tobacco.
as §6

Compound | regeneration of kanamycin resistant calli in transformed potato (transformed potato) | regeneration of kanamycin resistant calli and shoots in transformed tobacco (transformed tobacco) | Potato Callus (regeneration of transformed tissue) (transformed potato) | other results
5-bromo-IAA |  |  |  | callus and shoot formation in combination with cytokinin [1]: both callus and shoot formation are observed; effectiveness in stimulating the regeneration of green calli, relative to IAA (Arabidopsis thaliana): between two and four times more effective than IAA
O=C(O)Cc1c[nH]c2ccc(Cl)cc12 [5-ClIAA, 5-chloroindole-3-acetic acid] | stimulated | stimulated |  | 
CCc1ccc2[nH]cc(CC(=O)O)c2c1 [5-EtIAA, 5-ethylindole-3-acetic acid] | stimulated | stimulated |  | Tobacco Callus (regeneration) (tobacco leaf discs [2]): +(−)
O=C(O)Cc1c[nH]c2ccc(F)cc12 [5-FIAA, 5-fluoroindole-3-acetic acid] | stimulated | stimulated |  | shoot formation in cassava stems and leaves (Cassava leaves and stems): promoted the formation of shoots in cassava stems and to a greater extent from cassava leaves; also recorded: regeneration of shoots
O=C(O)Cc1c[nH]c2ccc(I)cc12 [5-IIAA, 5-iodoindole-3-acetic acid] |  |  |  | Potato Roots (regeneration) (potato stems [3]; Auxins 2 mg/l, no cytokinin, MS complete medium): +(−); Potato Callus (regeneration) (potato stems [4]; BAP 0.5 mg/l + Auxins 2 mg/l): +(−); Tobacco Callus (regeneration) (tobacco leaf discs [5]; BAP 0.5 mg/l + Auxins 2 mg/l): +(−); Tobacco Callus (regeneration) (tobacco leaf discs [2]): +(−)
COc1ccc2[nH]cc(CC(=O)O)c2c1 [5-MeoIAA, 5-methoxyindole-3-acetic acid] | stimulated | stimulated |  | 
O=C(O)Cc1c[nH]c2cc(Br)ccc12 [6-BrIAA, 6-bromoindole-3-acetic acid] |  |  |  | root formation in potato stems (potato stems [3]): root formation was diminished; root formation in potato stems (potato stems [3]; concentration increased from 0.5 to 2.0 mg/l): root formation increased; growth response of potato stems (potato stems [4]; 0.5, 2.0, 8.0 mg/l with BAP 0.5 mg/l): callus formation was observed at all ratios of cytokinin/auxin; growth response of tobacco leaf discs (tobacco leaf discs [5]; different concentrations, presence of BAP): the formation of both shoots and calli occurred; growth response of tomato leaf discs (tomato leaf discs [6]): calli, not roots, were formed; growth response of tomato leaf discs (tomato leaf discs [7]): only root formation was observed; growth response of tobacco leaf discs (tobacco leaf discs [2]; different concentrations, absence of BAP): both the formation of roots and the formation of calli were observed
O=C(O)Cc1c[nH]c2c(Br)cccc12 [7-BrIAA, 7-bromoindole-3-acetic acid] | stimulated | stimulated | +(−) | 
CCc1cccc2c(CC(=O)O)c[nH]c12 [7-EtIAA, 7-ethylindole-3-acetic acid] | stimulated | stimulated | +(−) | 
O=C(O)Cc1c[nH]c2c(F)cccc12 [7-FIAA, 7-fluoroindole-3-acetic acid] | stimulated | stimulated | +(−) | 
